From patent US11980620B2, “Compounds and methods for treatment of Diamond Blackfan anemia” (THE CHILDREN'S MEDICAL CENTER CORPORATION, priority 2017, dated 2024)

Assays:
[1] = tested on: DBA iPSCs; experiment: Cytotoxicity (Annexin and DAPI positive cells) at varying doses; type: cell-based, human; conditions: drug doses up to 20 μM
Description: FIGS. 9A-9D show compounds screened for rescue of erythroid differentiation defects. […] (FIG. 9B) List of compounds screened that provided promising results. (FIG. 9C) FACS plots showing GlyA and CD71 expression levels for indicated genotype (top panels). Micrographs showing GlyA^+ CD71^+ cells in indicated genotype (bottom panels). (FIG. 9D) Plot showing the percentage of Annexin and DAPI positive cells following varying doses of SMER28.

[2] = tested on: CB CD34+ cells; type: in vivo, NSG mice
Experimental: (FIG. 10A) SMER28 rescues RBC output in rps29^+/− zebrafish embryos. The level of hemoglobin in the yolk sac was visualized 40hpf with benzidine staining. Images are representative of the proportion of embryos indicated (of total counted). (FIG. 10B) Quantitation of SMER28 rescue for a range of 0.1-1 μM, with embryos grouped by high, medium, and low levels of hemoglobin staining. (FIG. 10C) Peripheral blood (PB) RBC counts and hematocrit in mice with irradiation-induced anemia. Mice were treated with the PEG400-based vehicle containing DMSO (VEH) (n=11), 1 mg/kg Dex (sodium-phosphate) (n=13), or 10 mg/kg SMER28 (n=9) for 3 weeks, bled, and assessed. Data are combined from 3 independent experiments. (FIG. 10D) Erythroid cells as proportion of the human graft in mice transplanted with DBA CD34-5F progenitors, and treated as in (FIG. 1c). (FIG. 10E) Levels of human engraftment in NSG mouse bone marrow (BM) transplanted with CB CD34^+ cells. Mice were treated with DMSO plus vehicle (VEH) (n=10), 1 mg/kg Dex (sodium-phosphate) (n=6), or 2 mg/kg SMER28 (n=11) for 4 weeks. (FIG. 10F) The proportion of erythroid, myeloid, and lymphoid (B cells) lineages within the human graft in vehicle- and SMER28-treated mice transplanted with CB CD34^+ cells. Only the effect on the erythroid lineage was significant. Data in FIGS. 10E-10G are pooled from 2 independent experiments. For all panels, *p<0.05, * *p<0.01.
Drug treatments. SMER28 was purchased from Tocris and diluted in 10 mM aliquots in DMSO. The final concentration for CD34-5F and CB CD34^+erythroid treatments was 0.2-10 μM as indicated in the text. The final concentration for K562 cell treatments was 20-40 μM. Ferric citrate (1-50 μM) and deferoxamine (100-200 μM) (Sigma) were dissolved in PBS and added on days 0-4 of “expansion” culture, and washed off prior to erythroid stage I (days 4-9) differentiation. For in vivo experiments, SMER28 aliquots were diluted in vehicle solution: 30% PEG-400, 5% propylene glycol, and 0.5% Tween-80. Dosing for human xenograft experiments was 2 mg/kg; for mouse models 10-20 mg/kg. Dexamethasone was purchased as Dex-sodium phosphate (DexSP) water-soluble formulation (Santa Cruz), and diluted in PBS vehicle (1 mg/kg). NSG mice were sub-lethally irradiated at 275 rads, and administered 100 μl of drug or vehicle by oral gavage daily.

[3] = tested on: CD34-5F progenitors with ATG5 knockdown; experiment: Erythroid differentiation of CD34-5F cells transduced with shRNAs for ATG5; type: cell-based, human; conditions: SMER28 10 μM; p=0.005
Experimental: (FIG. 13A) Induction of autophagy by SMER28 (40 μM) monitored by protein levels of p62, LC3-I, and LC3-II after 24 hours. Cells were also treated with 5-FU (100 nM) to induce autophagy, or inhibitor of transcription actinomycin D (ActD; 100 nM). (FIG. 13B) Induction of autophagy by SMER28 (40 μM) monitored by protein levels of p62, LC3-I, and LC3-II after 24 hours treatment with or without lysosomal blockade with bafilomycin A (200 nM for 4 hours). Untreated samples are shown at higher exposure, to capture dynamic changes in the LC3-II levels. Rapamycin (200 nM) is a positive control. LC3-II levels relative to GAPDH are quantitated on the right. (FIG. 13C) Erythroid differentiation of CD34-5F cells transduced with shRNAs for luciferase (LUC) or ATG5±SMER28. Representative flow plots and quantitation showing the number of erythroid cells induced by SMER28 (10 μM) normalized to DMSO. 2 control luciferase shRNAs and 2 ATG5 shRNAs are included (knockdown efficiency in hematopoietic cells of 58% and 50%, respectively), each with 2 independent lines; p=0.005, 3 independent experiments. (FIG. 13D) Atg5 deficiency causes anemia in zebrafish. […] Representative images (left), and quantitation (right) with embryos grouped by high, medium, and low levels of benzidine staining. […]

Compound: C=CCNc1ncnc2ccc(Br)cc12 [SMER28, 6-Bromo-N-2-propenyl-4-quinazolinam]
- Cytotoxicity [1]: not observed
- distribution of myeloid and lymphoid lineages in human graft ([2]; 2 mg/kg SMER28 for 4 weeks): did not affect
- erythroid contribution to human graft (RBCs as proportion of human graft) ([2]; 2 mg/kg SMER28 for 4 weeks, vehicle 5.5%, p=0.05): 13.0%
- human chimerism in bone marrow ([2]; 2 mg/kg for 4 weeks, ns vs vehicle): 25.2%
- effect of SMER28 on erythroid differentiation after knockdown of ATG5 [3]: significantly reduced
